# Reference: patent US20260055143A1, “HIGH AFFINITY VARIANTS OF SH2 DOMAINS” (Axoiya Inc., priority 2023, published 2026)
# Tested on: PPPT{pTyr}TEVDP
# Experiment: Competitive ELISA, Ptn11_C variants
# Type: binding
# Protocol: Competitive and non-competitive phage ELISAs were performed as previously described with minor modifications to the protocol. Peptide sequences used for these analyses can be found in Table 4.
# Streptavidin (50 ng/well in TBS (50 mM Tris-HCl pH 8.0, 150 mM NaCl) was coated onto MAXISORP plates (Thermo Scientific). Phage binding was detected using HRP conjugated anti-M13 secondary antibody (1/2000 dilution, GE Healthcare) in TBS buffer containing 0.05% Tween-20 (TBT buffer). Phage binding was detected using the 3,3′,5,5′-tetramethylbenzidine (TMB) (Thermo Fisher Scientific) chromogenic substrate. Plates were read using a PowerWave XS microplate reader (BioTek).
# Competitive phage-ELISAs were used to determine binding affinity of SH2 superbinders for their cognate target. ELISAs were performed as previously described, biotinylated and phosphorylated peptides were immobilized on plates at the concentration of 0.2 μM, and available binding sites on streptavidin were blocked by adding 25 μl/well of 50 μM D-biotin in TBS. […] Data were plotted using Prism 6 software (GraphPad Software Inc) and affinity of SH2 domains was inferred from determination of the half maximal inhibition concentration (IC50).
# Peptides listed in Table 5 were used to assay for binding affinity of each corresponding SH2 domain.
substance,measurement,setting,value
"Ptn11_C^wt: wild-type PTN11_C SH2 domain, SEQ ID 57",change in affinity,with either the sSrc or sFes graft,no improvement in affinity
same,change in binding,αA-2-Arg mutation alone,not sufficient to enhance the binding
